Assay results reported in paper PMC11968843, “Sulphostin-inspired N-phosphonopiperidones as selective covalent DPP8 and DPP9 inhibitors” (Nature Communications, 2025).
Several values for one entry are separate records, joined by “and”; a condition that tells them apart may be missing. Equal values may be shown once.

Tests used:
Experiment in all cases: Competitive ABPP / direct target identification with alkyne probe 9 in HEK293 cell lysates
Assay type in all cases: binding, H. sapiens
[1] = target: T1, HEK293 cell lysates (proteome-wide targets of probe 9) (Homo sapiens, UniProt P26641); settings: protein EEF1G
T1 construct: endogenous in cells; host or cells: HEK293 cell lysate

[2] = target: T2, HEK293 cell lysates (proteome-wide targets of probe 9) (Homo sapiens, UniProt P36578); settings: protein RPL4
T2 construct: endogenous in cells; host or cells: HEK293 cell lysate

[3] = target: T3, HEK293 cell lysates (proteome-wide targets of probe 9) (Homo sapiens, UniProt P46782); settings: protein RPS5
T3 construct: endogenous in cells; host or cells: HEK293 cell lysate

[4] = target: T4, HEK293 cell lysates (proteome-wide targets of probe 9) (Homo sapiens, UniProt P00338); settings: protein LDHA
T4 construct: endogenous in cells; host or cells: HEK293 cell lysate

[5] = target: T5, HEK293 cell lysates (proteome-wide targets of probe 9) (Homo sapiens, UniProt Q8NC51); settings: protein SERBP1
T5 construct: endogenous in cells; host or cells: HEK293 cell lysate

[6] = target: T6, HEK293 cell lysates (proteome-wide targets of probe 9) (Homo sapiens, UniProt P62280); settings: protein RPS11
T6 construct: endogenous in cells; host or cells: HEK293 cell lysate

[7] = target: T7, HEK293 cell lysates (proteome-wide targets of probe 9) (Homo sapiens, UniProt Q01469); settings: protein FABP5
T7 construct: endogenous in cells; host or cells: HEK293 cell lysate
T7 sequence (Q01469 whole entry): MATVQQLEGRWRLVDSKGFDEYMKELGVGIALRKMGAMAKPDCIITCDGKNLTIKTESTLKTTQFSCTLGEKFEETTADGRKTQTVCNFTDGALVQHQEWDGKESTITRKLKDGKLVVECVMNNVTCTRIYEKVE

[8] = target: T8, HEK293 cell lysates (proteome-wide targets of probe 9) (Homo sapiens, UniProt Q02878); settings: protein RPL6
T8 construct: endogenous in cells; host or cells: HEK293 cell lysate

[9] = target: T9, HEK293 cell lysates (proteome-wide targets of probe 9) (Homo sapiens, UniProt P04075); settings: protein ALDOA
T9 construct: endogenous in cells; host or cells: HEK293 cell lysate

[10] = target: T10, HEK293 cell lysates (proteome-wide targets of probe 9) (Homo sapiens, UniProt P61978); settings: protein HNRNPK
T10 construct: endogenous in cells; host or cells: HEK293 cell lysate

[11] = target: T11, HEK293 cell lysates (proteome-wide targets of probe 9) (Homo sapiens, UniProt Q6V1X1)
T11 construct: endogenous in cells; host or cells: HEK293 cell lysate
T11 sequence (Q6V1X1 whole entry): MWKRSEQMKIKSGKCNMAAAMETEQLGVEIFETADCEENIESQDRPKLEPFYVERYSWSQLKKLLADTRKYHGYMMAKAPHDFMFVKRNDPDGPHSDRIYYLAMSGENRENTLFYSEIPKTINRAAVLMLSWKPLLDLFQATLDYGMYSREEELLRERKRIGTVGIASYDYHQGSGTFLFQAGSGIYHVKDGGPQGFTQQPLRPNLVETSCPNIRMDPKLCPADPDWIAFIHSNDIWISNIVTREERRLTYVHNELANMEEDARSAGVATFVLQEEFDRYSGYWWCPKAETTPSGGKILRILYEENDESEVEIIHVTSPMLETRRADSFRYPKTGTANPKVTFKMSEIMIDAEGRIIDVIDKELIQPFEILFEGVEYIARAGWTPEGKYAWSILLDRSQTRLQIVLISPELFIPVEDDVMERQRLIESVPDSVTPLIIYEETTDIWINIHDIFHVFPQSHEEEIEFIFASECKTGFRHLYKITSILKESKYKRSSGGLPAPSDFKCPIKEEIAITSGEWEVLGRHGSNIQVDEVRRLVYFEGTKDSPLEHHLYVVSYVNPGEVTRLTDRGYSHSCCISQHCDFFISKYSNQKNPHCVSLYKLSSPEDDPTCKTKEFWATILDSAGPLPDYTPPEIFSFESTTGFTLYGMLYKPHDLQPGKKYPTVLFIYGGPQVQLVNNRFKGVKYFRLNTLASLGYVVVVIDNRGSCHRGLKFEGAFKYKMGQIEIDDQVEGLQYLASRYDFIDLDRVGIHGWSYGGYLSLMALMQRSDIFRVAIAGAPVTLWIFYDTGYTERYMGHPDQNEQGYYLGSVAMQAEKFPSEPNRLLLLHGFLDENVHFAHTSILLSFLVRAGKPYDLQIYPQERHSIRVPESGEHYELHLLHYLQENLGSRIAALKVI

[12] = target: T12, HEK293 cell lysates (proteome-wide targets of probe 9) (Homo sapiens, UniProt P63104); settings: protein YWHAZ
T12 construct: endogenous in cells; host or cells: HEK293 cell lysate
T12 sequence (P63104 whole entry): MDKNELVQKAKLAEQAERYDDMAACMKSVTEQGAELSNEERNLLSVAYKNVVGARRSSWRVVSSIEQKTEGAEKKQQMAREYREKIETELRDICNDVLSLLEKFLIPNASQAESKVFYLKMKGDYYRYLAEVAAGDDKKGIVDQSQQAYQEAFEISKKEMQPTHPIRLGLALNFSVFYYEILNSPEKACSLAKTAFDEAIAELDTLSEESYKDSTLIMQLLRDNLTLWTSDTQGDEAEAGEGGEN

[13] = target: T13, HEK293 cell lysates (proteome-wide targets of probe 9) (Homo sapiens, UniProt Q12802); settings: protein AKAP13
T13 construct: endogenous in cells; host or cells: HEK293 cell lysate

[14] = target: T14, HEK293 cell lysates (proteome-wide targets of probe 9) (Homo sapiens, UniProt P08670); settings: protein VIM
T14 construct: endogenous in cells; host or cells: HEK293 cell lysate
T14 sequence (P08670 whole entry): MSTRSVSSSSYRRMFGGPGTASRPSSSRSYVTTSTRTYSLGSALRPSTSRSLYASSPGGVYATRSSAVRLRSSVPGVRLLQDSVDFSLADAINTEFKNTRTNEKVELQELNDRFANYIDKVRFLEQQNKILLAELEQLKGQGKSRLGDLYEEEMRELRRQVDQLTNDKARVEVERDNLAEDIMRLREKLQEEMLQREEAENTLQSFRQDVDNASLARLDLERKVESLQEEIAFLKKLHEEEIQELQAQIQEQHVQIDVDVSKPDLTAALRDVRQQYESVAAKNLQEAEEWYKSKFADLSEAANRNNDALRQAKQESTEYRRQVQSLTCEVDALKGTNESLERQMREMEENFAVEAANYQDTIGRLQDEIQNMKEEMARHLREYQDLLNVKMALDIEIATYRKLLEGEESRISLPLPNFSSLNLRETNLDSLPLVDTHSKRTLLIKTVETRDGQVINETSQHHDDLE

[15] = target: T15, HEK293 cell lysates (proteome-wide targets of probe 9) (Homo sapiens, UniProt P42704); settings: protein LRPPRC
T15 construct: endogenous in cells; host or cells: HEK293 cell lysate

[16] = target: T16, HEK293 cell lysates (proteome-wide targets of probe 9) (Homo sapiens, UniProt Q14103); settings: protein HNRNPD
T16 construct: endogenous in cells; host or cells: HEK293 cell lysate
T16 sequence (Q14103 whole entry): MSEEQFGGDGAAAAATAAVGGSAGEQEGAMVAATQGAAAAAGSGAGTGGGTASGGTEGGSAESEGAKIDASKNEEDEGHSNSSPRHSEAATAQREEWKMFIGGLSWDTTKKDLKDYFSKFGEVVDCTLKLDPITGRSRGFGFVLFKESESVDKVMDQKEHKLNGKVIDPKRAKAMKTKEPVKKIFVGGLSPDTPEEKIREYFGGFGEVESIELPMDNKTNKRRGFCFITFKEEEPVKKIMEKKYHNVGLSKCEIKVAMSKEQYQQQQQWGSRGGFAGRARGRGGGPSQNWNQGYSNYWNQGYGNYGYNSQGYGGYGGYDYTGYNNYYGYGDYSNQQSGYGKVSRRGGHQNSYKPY

[17] = target: T17, HEK293 cell lysates (proteome-wide targets of probe 9) (Homo sapiens, UniProt P00558); settings: protein PGK1
T17 construct: endogenous in cells; host or cells: HEK293 cell lysate
T17 sequence (P00558 whole entry): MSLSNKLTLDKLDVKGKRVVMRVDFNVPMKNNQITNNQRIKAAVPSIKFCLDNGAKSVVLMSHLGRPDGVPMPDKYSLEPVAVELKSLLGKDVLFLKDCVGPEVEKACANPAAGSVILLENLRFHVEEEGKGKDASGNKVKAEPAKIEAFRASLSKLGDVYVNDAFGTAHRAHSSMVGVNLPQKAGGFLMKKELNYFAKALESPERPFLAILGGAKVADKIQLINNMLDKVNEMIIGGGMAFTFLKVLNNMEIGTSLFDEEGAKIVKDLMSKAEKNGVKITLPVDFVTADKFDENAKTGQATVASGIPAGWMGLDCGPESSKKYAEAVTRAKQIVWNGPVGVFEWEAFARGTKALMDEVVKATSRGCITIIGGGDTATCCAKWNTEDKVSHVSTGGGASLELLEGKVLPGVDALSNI

[18] = target: T18, HEK293 cell lysates (proteome-wide targets of probe 9) (Homo sapiens, UniProt P60842); settings: protein EIF4A1
T18 construct: endogenous in cells; host or cells: HEK293 cell lysate

[19] = target: T19, HEK293 cell lysates (proteome-wide targets of probe 9) (Homo sapiens, UniProt P60174); settings: protein TPI1
T19 construct: endogenous in cells; host or cells: HEK293 cell lysate
T19 sequence (P60174 whole entry): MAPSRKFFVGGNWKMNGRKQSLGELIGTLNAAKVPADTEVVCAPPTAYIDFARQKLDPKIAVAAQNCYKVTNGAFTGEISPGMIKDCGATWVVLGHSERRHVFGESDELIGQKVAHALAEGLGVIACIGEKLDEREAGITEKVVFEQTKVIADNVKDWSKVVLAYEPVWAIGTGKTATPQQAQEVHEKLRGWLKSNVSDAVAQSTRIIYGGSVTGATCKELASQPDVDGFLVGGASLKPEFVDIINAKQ

[20] = target: T20, HEK293 cell lysates (proteome-wide targets of probe 9) (Homo sapiens, UniProt P23528); settings: protein CFL1
T20 construct: endogenous in cells; host or cells: HEK293 cell lysate
T20 sequence (P23528 whole entry): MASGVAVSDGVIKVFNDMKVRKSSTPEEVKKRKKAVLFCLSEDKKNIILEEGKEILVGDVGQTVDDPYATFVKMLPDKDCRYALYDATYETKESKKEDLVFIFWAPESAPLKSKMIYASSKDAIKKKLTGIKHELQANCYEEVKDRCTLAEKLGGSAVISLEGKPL

[21] = target: T21, HEK293 cell lysates (proteome-wide targets of probe 9) (Homo sapiens, UniProt P59998); settings: protein ARPC4
T21 construct: endogenous in cells; host or cells: HEK293 cell lysate

[22] = target: T22, HEK293 cell lysates (proteome-wide targets of probe 9) (Homo sapiens, UniProt P11021); settings: protein HSPA5
T22 construct: endogenous in cells; host or cells: HEK293 cell lysate

[23] = target: T23, HEK293 cell lysates (proteome-wide targets of probe 9) (Homo sapiens, UniProt P52292); settings: protein KPNA2
T23 construct: endogenous in cells; host or cells: HEK293 cell lysate

[24] = target: T24, HEK293 cell lysates (proteome-wide targets of probe 9) (Homo sapiens, UniProt P04259); settings: protein KRT6B
T24 construct: endogenous in cells; host or cells: HEK293 cell lysate
T24 sequence (P04259 whole entry): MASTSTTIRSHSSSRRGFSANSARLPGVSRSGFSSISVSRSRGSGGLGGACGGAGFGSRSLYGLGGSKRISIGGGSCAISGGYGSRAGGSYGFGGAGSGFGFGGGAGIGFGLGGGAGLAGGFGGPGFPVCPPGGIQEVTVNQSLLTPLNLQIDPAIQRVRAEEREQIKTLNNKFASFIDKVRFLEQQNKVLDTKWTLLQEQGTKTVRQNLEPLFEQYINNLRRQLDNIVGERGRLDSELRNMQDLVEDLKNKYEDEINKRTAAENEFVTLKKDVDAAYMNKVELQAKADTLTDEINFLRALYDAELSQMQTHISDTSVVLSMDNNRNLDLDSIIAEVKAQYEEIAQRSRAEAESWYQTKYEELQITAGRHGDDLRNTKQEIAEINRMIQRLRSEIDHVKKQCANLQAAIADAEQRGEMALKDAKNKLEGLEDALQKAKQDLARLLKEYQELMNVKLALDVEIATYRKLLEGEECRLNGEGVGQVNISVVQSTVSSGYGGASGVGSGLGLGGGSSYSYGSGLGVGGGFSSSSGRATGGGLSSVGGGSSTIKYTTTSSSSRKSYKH

[25] = target: T25, HEK293 cell lysates (proteome-wide targets of probe 9) (Homo sapiens, UniProt P83731); settings: protein RPL24
T25 construct: endogenous in cells; host or cells: HEK293 cell lysate

[26] = system: HEK293 cell lysates (proteome-wide targets of probe 9)
[27] = target: T26, HEK293 cell lysates (proteome-wide targets of probe 9) (Homo sapiens, UniProt P04406); settings: protein GAPDH
T26 construct: endogenous in cells; host or cells: HEK293 cell lysate

[28] = target: T27, HEK293 cell lysates (proteome-wide targets of probe 9) (Homo sapiens, UniProt P08238); settings: protein HSP90AB1
T27 construct: endogenous in cells; host or cells: HEK293 cell lysate
T27 sequence (P08238 whole entry): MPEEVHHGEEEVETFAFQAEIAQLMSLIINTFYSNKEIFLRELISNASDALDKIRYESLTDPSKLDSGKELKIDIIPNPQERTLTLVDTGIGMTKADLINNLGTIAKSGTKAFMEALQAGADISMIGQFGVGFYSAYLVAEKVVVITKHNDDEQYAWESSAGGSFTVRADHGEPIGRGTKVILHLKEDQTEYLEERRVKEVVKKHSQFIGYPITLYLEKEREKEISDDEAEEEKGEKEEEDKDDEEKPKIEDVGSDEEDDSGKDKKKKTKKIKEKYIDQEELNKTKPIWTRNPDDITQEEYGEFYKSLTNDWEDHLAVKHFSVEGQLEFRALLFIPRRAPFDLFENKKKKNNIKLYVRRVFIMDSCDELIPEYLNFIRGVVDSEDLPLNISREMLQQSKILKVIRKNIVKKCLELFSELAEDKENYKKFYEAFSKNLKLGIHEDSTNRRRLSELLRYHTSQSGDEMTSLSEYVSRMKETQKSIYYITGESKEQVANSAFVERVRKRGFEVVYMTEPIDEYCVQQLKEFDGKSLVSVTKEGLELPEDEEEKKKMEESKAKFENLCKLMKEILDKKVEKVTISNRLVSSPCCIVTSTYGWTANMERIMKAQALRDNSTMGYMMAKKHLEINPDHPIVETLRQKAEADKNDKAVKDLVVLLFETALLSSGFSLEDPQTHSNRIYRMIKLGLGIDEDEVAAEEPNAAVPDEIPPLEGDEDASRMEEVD

[29] = target: T28, HEK293 cell lysates (proteome-wide targets of probe 9) (Homo sapiens, UniProt P29401); settings: protein TKT
T28 construct: endogenous in cells; host or cells: HEK293 cell lysate
T28 sequence (P29401 whole entry): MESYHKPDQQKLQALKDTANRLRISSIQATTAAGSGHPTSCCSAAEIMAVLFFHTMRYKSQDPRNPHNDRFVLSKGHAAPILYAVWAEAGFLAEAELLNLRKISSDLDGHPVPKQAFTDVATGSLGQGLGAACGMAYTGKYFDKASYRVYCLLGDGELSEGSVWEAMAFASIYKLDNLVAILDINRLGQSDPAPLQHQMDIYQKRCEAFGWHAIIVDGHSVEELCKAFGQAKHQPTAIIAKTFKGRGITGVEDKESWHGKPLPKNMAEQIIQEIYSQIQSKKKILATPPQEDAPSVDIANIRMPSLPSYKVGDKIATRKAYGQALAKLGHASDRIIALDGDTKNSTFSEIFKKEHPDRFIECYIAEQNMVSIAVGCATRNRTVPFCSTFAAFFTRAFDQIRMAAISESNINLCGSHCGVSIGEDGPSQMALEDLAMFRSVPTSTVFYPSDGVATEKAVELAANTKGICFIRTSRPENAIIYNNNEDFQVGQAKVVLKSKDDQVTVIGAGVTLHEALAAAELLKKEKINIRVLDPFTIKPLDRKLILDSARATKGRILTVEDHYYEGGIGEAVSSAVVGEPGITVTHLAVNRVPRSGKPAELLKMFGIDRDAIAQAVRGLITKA

[30] = protein DPP8 (Dipeptidyl peptidase 8)
[31] = protein HIST1H1C;HIST1H1E;HIST1H1D
[32] = protein group Histone H2A type 1 (HIST1H2AG and others)

C#CCCCP(=O)(OCC)N1CCCC(N)C1=O.O=C(O)C(F)(F)F (mixture of isomers) [Compound 9]
Log2-fold change (9/DMSO) [1]: 0.4327
Log2-fold change (9/DMSO) [2]: -0.3595
Log2-fold change (9/DMSO) [3]: 0.2495
Log2-fold change (9/DMSO) [4]: -0.2121
Log2-fold change (9/DMSO) [5]: -0.5195
Log2-fold change (9/DMSO) [6]: -0.5072
Log2-fold change (9/DMSO) [7]: -0.287
Log2-fold change (9/DMSO) [8]: 0.5143
Log2-fold change (9/DMSO) [9]: 0.3187
Log2-fold change (9/DMSO) [10]: 0.1297
Initial LFQ intensity of DPP8 (log2-transformed) ([11]; labeled with 9, single replicates): 21.9345 and 21.2153 and 19.9933
Log2-fold change (9/DMSO) [11, 30]: 1.124
Log2-fold change (9/DMSO) [12]: 0.2647
Log2-fold change (9/DMSO) [13]: -0.9342
Log2-fold change (9/DMSO) [14]: 0.9336
Log2-fold change (9/DMSO) [15]: 0.5243
Log2-fold change (9/DMSO) [16]: 1.662
Log2-fold change (9/DMSO) [17]: -0.05307
Log2-fold change (9/DMSO) [18]: 0.03837
Log2-fold change (9/DMSO) [19]: 0.2166
Log2-fold change (9/DMSO) [20]: 0.4225
Log2-fold change (9/DMSO) [21]: -0.5289
Log2-fold change (9/DMSO) [22]: -0.3942
Log2-fold change (9/DMSO) [23]: 0.6086
Log2-fold change (9/DMSO) [24]: -0.8544
Log2-fold change (9/DMSO) [25]: -0.3893
proteins significantly enriched by the alkyne probe ([26]; 10 µM probe, HEK293 lysates): significant enrichment of only two proteins, namely DPP9 and the off-target prolyl endopeptidase (PREP)
Log2-fold change (9/DMSO) ([26]; protein EEF1A1;EEF1A1P5;EEF1A2): 0.04533
Log2-fold change (9/DMSO) ([26]; protein EIF5A;EIF5AL1): 1.278
Log2-fold change (9/DMSO) [26, 31]: 0.83
Log2-fold change (9/DMSO) ([26]; protein HNRNPH1;HNRNPH2): -0.1168
Log2-fold change (9/DMSO) ([26]; protein ID A0A1B0GV53): -4.4932
Log2-fold change (9/DMSO) ([26]; protein NME1;NME2): 0.34
Log2-fold change (9/DMSO) ([26]; protein PABPC1;PABPC3): 0.8323
Log2-fold change (9/DMSO) ([26]; protein PGAM1;PGAM2): 1.799
Log2-fold change (9/DMSO) ([26]; protein TUBB4B;TUBB4A): 1.386
Log2-fold change (9/DMSO) [26, 32]: -1.664
Log2-fold change (9/DMSO) [27]: -0.2878
Log2-fold change (9/DMSO) [28]: 0.02806
Log2-fold change (9/DMSO) [29]: -1.0711

CCCCCc1ccc(SCCP(=O)(OCC)N2CCC[C@H](N)C2=O)cc1.O=C(O)C(F)(F)F (stereo partly shown) [Compound 16]
Log2-fold change (16/9) [1]: -0.1709
Log2-fold change (16/9) [2]: 0.07056
Log2-fold change (16/9) [3]: 0.301
Log2-fold change (16/9) [4]: 0.1049
Log2-fold change (16/9) [5]: -1.208
Log2-fold change (16/9) [6]: 0.1367
Log2-fold change (16/9) [7]: 0.6319
Log2-fold change (16/9) [8]: 0.35
Log2-fold change (16/9) [9]: -0.5623
Log2-fold change (16/9) [10]: -0.758
DPP8 identification after pre-incubation with competitor ([11]; labeled with 9, pre-incubated with competitor): peptides of DPP8 were identified
Log2-fold change (16/9) [11, 30]: -1.618
Log2-fold change (16/9) [12]: 0.4135
Log2-fold change (16/9) [13]: 0.6936
Log2-fold change (16/9) [14]: -0.2472
Log2-fold change (16/9) [15]: -0.09939
Log2-fold change (16/9) [16]: -0.4231
Log2-fold change (16/9) [17]: 0.07234
Log2-fold change (16/9) [18]: -1.788
Log2-fold change (16/9) [19]: -0.0839
Log2-fold change (16/9) [20]: -0.1396
Log2-fold change (16/9) [21]: -0.1373
Log2-fold change (16/9) [22]: 0.6165
Log2-fold change (16/9) [23]: -0.6819
Log2-fold change (16/9) [24]: 1.89
Log2-fold change (16/9) [25]: 1.34
competition of labeling by probe 9 ([26]; 50 µM competitor, 10 µM 9, HEK293 lysates): solely DPP9 was competed
Log2-fold change (16/9) ([26]; protein EEF1A1;EEF1A1P5;EEF1A2): -1.204
Log2-fold change (16/9) ([26]; protein EIF5A;EIF5AL1): -2.135
Log2-fold change (16/9) [26, 31]: -0.04142
Log2-fold change (16/9) ([26]; protein HNRNPH1;HNRNPH2): 0.1964
Log2-fold change (16/9) ([26]; protein HSPA1A;HSPA1B): -0.2164
Log2-fold change (16/9) ([26]; protein ID A0A1B0GV53): 0.5692
Log2-fold change (16/9) ([26]; protein NME1;NME2): -0.08451
Log2-fold change (16/9) ([26]; protein PABPC1;PABPC3): -0.421
Log2-fold change (16/9) ([26]; protein PGAM1;PGAM2): -2.097
Log2-fold change (16/9) ([26]; protein RPLP0;RPLP0P6): -0.5558
Log2-fold change (16/9) ([26]; protein TUBB4B;TUBB4A): -2.026
Log2-fold change (16/9) [26, 32]: 0.5881
Log2-fold change (16/9) [27]: 0.4935
Log2-fold change (16/9) [28]: -0.3526
Log2-fold change (16/9) [29]: 1.379
